From patent publication US7659404B2, “Broad spectrum 2-(substituted-amino)-benzothiazole sulfonamide HIV protease inhibitors” (Tibotec Pharmaceuticals Ltd., priority 2001, dated 2010)
Like-named read-outs stand apart in the source and are kept apart here.

Assays:
virus strain F (R13025) = assay: microbe, parasite or virus in culture; format: cell-based, HIV; details: FR=EC50(mutant strain)/EC50(HIV-1 strain LAI); strain F
Outline: (§1)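 Anti-HIV activity against multiply mutated clinical isolates is measured in MT4 cells over a five-day incubation, using MTT viability (540 nm) as a proxy for protection from viral cytopathicity. Values are reported as EC50 or as fold change versus the LAI reference strain.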

virus strain S (R13080) = assay: microbe, parasite or virus in culture; format: cell-based, HIV; details: FR=EC50(mutant strain)/EC50(HIV-1 strain LAI); strain S
Outline: as §1

[1] = test system: clinically isolated HIV strain J; format: cell-based; details: FR=EC50(mutant strain)/EC50(HIV-1 strain LAI)
Outline: as §1

[2] = test system: clinically isolated HIV strain I; format: cell-based; details: FR=EC50(mutant strain)/EC50(HIV-1 strain LAI)
Outline: as §1

[3] = test system: clinically isolated HIV strain T; format: cell-based; details: FR=EC50(mutant strain)/EC50(HIV-1 strain LAI)
Outline: as §1

[4] = test system: clinically isolated HIV strain H; format: cell-based; details: FR=EC50(mutant strain)/EC50(HIV-1 strain LAI)
Outline: as §1

[5] = test system: clinically isolated HIV strain O; format: cell-based; details: FR=EC50(mutant strain)/EC50(HIV-1 strain LAI)
Outline: as §1

HIV-1 strain LAI = assay: Cellular anti-HIV assay in MT4 cells (MTT), wild type laboratory strain; format: cell-based; details: read-out: EC50 value against HIV-1 strain LAI
Experimental: The compounds of the present invention were examined for anti-viral activity in a cellular assay. […] The cellular assay was performed according to the following procedure.
Cellular Assay Experimental Method:
(§2) HIV- or mock-infected MT4 cells were incubated for five days in the presence of various concentrations of the inhibitor. At the end of the incubation period, all HIV-infected cells have been killed by the replicating virus in the control cultures in the absence of any inhibitor. Cell viability is measured by measuring the concentration of MTT, a yellow, water soluble tetrazolium dye that is converted to a purple, water insoluble formazan in the mitochondria of living cells only. Upon solubilization of the resulting formazan crystals with isopropanol, the absorbance of the solution is monitored at 540 nm. The values correlate directly to the number of living cells remaining in the culture at the completion of the five day incubation. The inhibitory activity of the compound was monitored on the virus-infected cells and was expressed as EC50 and EC90. These values represent the amount of the compound required to protect 50% and 90%, respectively, of the cells from the cytopathogenic effect of the virus. The toxicity of the compound was measured on the mock-infected cells and was expressed as CC50, which represents the concentration of compound required to inhibit the growth of the cells by 50%. The selectivity index (SI) (ratio CC50/EC50) is an indication of the selectivity of the anti-HIV activity of the inhibitor.

[6] = test system: clinically isolated HIV strain P; assay: Antiviral spectrum, cellular assay (fold resistance), strain P; format: cell-based; details: FR=EC50(mutant strain)/EC50(HIV-1 strain LAI)
Experimental: as §2
(§3) Because of the increasing emergence of drug resistant HIV strains, the present compounds were tested for their potency against clinically isolated HIV strains harboring several mutations. These mutations are associated with resistance to protease inhibitors and result in viruses that show various degrees of phenotypic cross-resistance to the currently commercially available drugs such as for instance saquinavir, ritonavir, nelfinavir, indinavir and amprenavir.
(§4) As a measure of the broad spectrum activity of the present compounds, the fold resistance (FR) defined as FR=EC50(mutant strain)/EC50(HIV-1 strain LAI).

[7] = test system: clinically isolated HIV strain N; assay: Antiviral spectrum, cellular assay (fold resistance), strain N; format: cell-based; details: FR=EC50(mutant strain)/EC50(HIV-1 strain LAI)
Experimental: as §2, §3, §4

[8] = test system: clinically isolated HIV strain D; assay: Antiviral spectrum, cellular assay (fold resistance), strain D; format: cell-based; details: FR=EC50(mutant strain)/EC50(HIV-1 strain LAI)
Experimental: as §2, §3, §4

[9] = test system: clinically isolated HIV strain A; assay: Antiviral spectrum, cellular assay (fold resistance), strain A; format: cell-based; details: FR=EC50(mutant strain)/EC50(HIV-1 strain LAI)
Experimental: as §2, §3, §4

[10] = test system: clinically isolated HIV strain L; assay: Antiviral spectrum, cellular assay (fold resistance), strain L; format: cell-based; details: FR=EC50(mutant strain)/EC50(HIV-1 strain LAI)
Experimental: as §2, §3, §4

[11] = test system: clinically isolated HIV strain G; assay: Antiviral spectrum, cellular assay (fold resistance), strain G; format: cell-based; details: FR=EC50(mutant strain)/EC50(HIV-1 strain LAI)
Experimental: as §2, §3, §4

[12] = test system: clinically isolated HIV strain Q; assay: Antiviral spectrum, cellular assay (fold resistance), strain Q; format: cell-based; details: FR=EC50(mutant strain)/EC50(HIV-1 strain LAI)
Experimental: as §2, §3, §4

[13] = test system: clinically isolated HIV strain R; assay: Antiviral spectrum, cellular assay (fold resistance), strain R; format: cell-based; details: FR=EC50(mutant strain)/EC50(HIV-1 strain LAI)
Experimental: as §2, §3, §4

[14] = test system: clinically isolated HIV strain C; assay: Antiviral spectrum, cellular assay (fold resistance), strain C; format: cell-based; details: FR=EC50(mutant strain)/EC50(HIV-1 strain LAI)
Experimental: as §2, §3, §4

[15] = test system: clinically isolated HIV strain M; assay: Antiviral spectrum, cellular assay (fold resistance), strain M; format: cell-based; details: FR=EC50(mutant strain)/EC50(HIV-1 strain LAI)
Experimental: as §2, §3, §4

[16] = test system: clinically isolated HIV strain B; assay: Antiviral spectrum, cellular assay (fold resistance), strain B; format: cell-based; details: FR=EC50(mutant strain)/EC50(HIV-1 strain LAI)
Experimental: as §2, §3, §4

[17] = test system: clinically isolated HIV strain K; assay: Antiviral spectrum, cellular assay (fold resistance), strain K; format: cell-based; details: FR=EC50(mutant strain)/EC50(HIV-1 strain LAI)
Experimental: as §2, §3, §4

[18] = test system: clinically isolated HIV strain E; assay: Antiviral spectrum, cellular assay (fold resistance), strain E; format: cell-based; details: FR=EC50(mutant strain)/EC50(HIV-1 strain LAI)
Experimental: as §2, §3, §4

[19] = Human immunodeficiency virus 1, MT4, 120 h
[20] = Human immunodeficiency virus 1, 120 h, MT4 cells, five days, MTT

Row | Structure (SMILES) | fold resistance (FR), strain F (virus strain F (R13025)) | fold resistance (FR), strain S (virus strain S (R13080)) | fold resistance (FR), strain J [1] | fold resistance (FR), strain I [2] | fold resistance (FR), strain T [3] | fold resistance (FR), strain H [4] | fold resistance (FR), strain O [5] | EC50 (HIV-1 strain LAI; [19]) | EC50 (HIV-1 strain LAI; [20]) | also measured
1 | CC(C)CN(CC(O)C(Cc1ccccc1)NC(=O)OC1COCC1N(C)C)S(=O)(=O)c1ccc2nc(NCCN(C)C)sc2c1 (stereo not shown) [Compound 44] | 80.2 | 89.3 | 29.5 | 7.5 | 89.3 | 29.4 | 11.2 | 50 to 500 nM |  | 
2 | CC(=O)N(C)c1nc2ccc(S(=O)(=O)N(Cc3ccccn3)CC(O)C(Cc3ccccc3)NC(=O)OCc3c(C)cccc3C)cc2s1 (stereo not shown) [Compound 31] |  |  |  |  |  |  |  | > 500 nM |  | 
3 | CC(C)CN(CC(O)C(Cc1ccccc1)NC(=O)OC1CCOC1)S(=O)(=O)c1ccc2nc(NCCN(C)C)sc2c1 (stereo not shown) [Compound 56] | 33.1 | 67.1 | 2.8 | 3.2 | 509.6 | 4.6 | 2.1 | < 50 nM |  | 
4 | CCN1CCCC1CNc1nc2ccc(S(=O)(=O)N(CC(C)C)C[C@@H](O)[C@H](Cc3ccccc3)NC(=O)O[C@H]3CO[C@H]4OCC[C@H]43)cc2s1 (stereo partly shown) [Compound 93] | 1.1 | 4.68 |  |  |  |  |  |  | < 50 nM | 
5 | CC(C)CN(CC(O)C(Cc1ccccc1)NC(=O)OC1COC2OCCC12)S(=O)(=O)c1ccc2nc(NC(=O)CN(C)C)sc2c1 (stereo not shown) [Compound 11] | 0.7 | 1.1 | 0.4 | 0.5 | 7.3 | 0.9 | 0.7 |  | < 50 nM | fold resistance (FR), strain P [6]: 0.3; fold resistance (FR), strain N [7]: 1.6; fold resistance (FR), strain D [8]: 0.3; fold resistance (FR), strain A [9]: 0.3; fold resistance (FR), strain L [10]: 0.3; fold resistance (FR), strain G [11]: 0.5; fold resistance (FR), strain Q [12]: 0.0; fold resistance (FR), strain R [13]: 0.5; fold resistance (FR), strain C [14]: 0.5; fold resistance (FR), strain M [15]: 0.4; fold resistance (FR), strain B [16]: 0.4; fold resistance (FR), strain K [17]: 0.4
6 | CC(C)CN(C[C@@H](O)[C@H](Cc1ccccc1)NC(=O)OC1COC2OCCC12)S(=O)(=O)c1ccc2nc(NCCN(C)C)sc2c1 (mixture of isomers) [Compound 4] | 2.2 | 2.9 | 0.5 | 1.2 | 48.8 | 1.9 | 0.5 |  | < 50 nM | 
7 | CC(C)CN(CC(O)C(Cc1ccccc1)NC(=O)OC1COC2OCCC12)S(=O)(=O)c1ccc2nc(NCC[N+](C)(C)[O-])sc2c1 (stereo not shown) [Compound 27] | 1.4 | 5.1 | 0.7 | 1.3 | 5.4 | 1.2 | 0.6 | > 500 nM |  | 
8 | CC(=O)Nc1nc2ccc(S(=O)(=O)N(CCNc3ccccn3)CC(O)C(Cc3ccccc3)NC(=O)OC3COC4OCCC34)cc2s1 (stereo not shown) [Compound 29] |  |  |  |  |  |  |  | 50 to 500 nM |  | 
9 | CC(C)CN(CC(O)C(Cc1ccccc1)NC(=O)OC1COC2OCCC12)S(=O)(=O)c1ccc2nc(NC(=O)CN(C)C)sc2c1 (mixture of isomers) [Compound 3] | 1.1 | 1.8 |  | 0.8 | 34.2 | 1.0 | 1.0 |  |  | fold resistance (FR), strain P [6]: 0.4; fold resistance (FR), strain N [7]: 2.3; fold resistance (FR), strain D [8]: 0.8; fold resistance (FR), strain A [9]: 0.4; fold resistance (FR), strain L [10]: 0.3; fold resistance (FR), strain G [11]: 0.4; fold resistance (FR), strain Q [12]: 0.5; fold resistance (FR), strain R [13]: 0.5; fold resistance (FR), strain C [14]: 0.4; fold resistance (FR), strain E [18]: 0.4
10 | CC(=O)N(C)c1nc2ccc(S(=O)(=O)N(Cc3ccccn3)CC(O)C(Cc3ccccc3)NC(=O)OC3COC4OCCC34)cc2s1 (stereo not shown) [Compound 33] | 7.6 | 467.3 | 5.9 | 7.1 | 467.3 | 6.8 | 3.4 |  | < 50 nM | 
11 | CC(=O)N(CCN1CCCC1)c1nc2ccc(S(=O)(=O)N(CC(C)C)CC(O)C(Cc3ccccc3)NC(=O)OC3COC4OCCC34)cc2s1 (stereo not shown) [Compound 19] | 2.4 | 2.2 | 0.6 | 1.1 | 10.5 | 2.1 | 0.5 |  | < 50 nM | 
12 | COC(=O)CNc1nc2ccc(S(=O)(=O)N(CC(C)C)CC(O)C(Cc3ccccc3)NC(=O)OC3COC4OCCC34)cc2s1 (mixture of isomers) [Compound 6] | 24.0 | 30.7 | 5.6 | 5.3 | 104.3 | 7.7 | 4.7 |  |  | 
13 | CC(C)CN(CC(O)C(Cc1ccccc1)NC(=O)OC1CNC(=O)C1)S(=O)(=O)c1ccc2nc(NC(=O)CN(C)C)sc2c1 (stereo not shown) [Compound 36] | 0.2 | 0.2 | 0.2 | 0.5 | 0.2 | 0.6 | 0.2 |  |  | 
